Measurements published in publication PMC4319983, “PE859, a Novel Tau Aggregation Inhibitor, Reduces Aggregated Tau and Prevents Onset and Progression of Neural Dysfunction In Vivo” (PLoS ONE, 2015).

Molecular target: T1, tau (microtubule-associated protein tau) (Homo sapiens, UniProt P10636)
T1 construct: gene MAPT
Test: ThT fluorescence assay of heparin-induced aggregation of recombinant tau; 3RMBD result confirmed by TEM and CD
Type: biochemical
Excerpt: ThT fluorescence assay of heparin-induced aggregation of recombinant tau; 3RMBD result confirmed by TEM and CD on tau (microtubule-associated protein tau) | PE859 inhibited the heparin-induced aggregation of both 3RMBD and full length tau in a concentration-dependent manner.

T1 sequence (P10636 150-247 isoform P10636-3): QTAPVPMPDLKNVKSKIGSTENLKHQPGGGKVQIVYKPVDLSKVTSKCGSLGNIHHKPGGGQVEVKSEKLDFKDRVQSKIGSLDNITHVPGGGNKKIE

`COc1cc(OCc2ccccn2)ccc1/C=C/c1cc(/C=C/c2ccc3cc[nH]c3c2)[nH]n1` [PE859, 3-[(1E)-2-(1H-indol-6-yl)ethenyl]-5-[(1E)-2-[2-methoxy-4-(2-pyridylmethoxy)phenyl]ethenyl]-1H-pyrazole] gave an IC50 of 0.81 µM.
